In ChEMBL document CHEMBL1132840, “Benzylidene ketal derivatives as M2 muscarinic receptor antagonists” (Bioorg Med Chem Lett, 2000):

How the values were obtained:
[1] = molecular target: Muscarinic acetylcholine receptors; M2 & M3 (Homo sapiens) (UniProt P20309+P08172); test: Selectivity ratio for M3 muscarinic receptor compared to M2 muscarinic receptor.; format: protein assay
[2] = molecular target: Muscarinic acetylcholine receptors; M1 & M2 (Homo sapiens) (UniProt P11229+P08172); test: Selectivity ratio for M1 muscarinic receptor compared to M2 muscarinic receptor.; format: protein assay
[3] = molecular target: T1, Muscarinic acetylcholine receptor M2 (Homo sapiens, UniProt P08172); test: Binding affinity at human cloned acetylcholine receptor M2 in CHO cells.; format: cell-based
T1 sequence (P08172 whole entry): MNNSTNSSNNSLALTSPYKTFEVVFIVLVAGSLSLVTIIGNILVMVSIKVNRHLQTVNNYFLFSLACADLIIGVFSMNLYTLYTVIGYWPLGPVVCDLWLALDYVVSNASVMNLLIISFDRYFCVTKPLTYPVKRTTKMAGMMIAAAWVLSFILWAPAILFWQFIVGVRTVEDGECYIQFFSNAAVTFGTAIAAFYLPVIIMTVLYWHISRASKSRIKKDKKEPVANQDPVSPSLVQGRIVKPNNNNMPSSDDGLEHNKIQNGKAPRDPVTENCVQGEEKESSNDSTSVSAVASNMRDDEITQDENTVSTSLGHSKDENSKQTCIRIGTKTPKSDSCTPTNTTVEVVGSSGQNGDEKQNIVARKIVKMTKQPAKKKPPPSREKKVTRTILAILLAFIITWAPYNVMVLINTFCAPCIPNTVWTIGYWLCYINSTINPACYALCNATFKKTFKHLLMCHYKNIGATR

Muscarinic acetylcholine receptors; M1 & M2 (Homo sapiens), sequence (P11229 whole entry, looked up, one chain of several): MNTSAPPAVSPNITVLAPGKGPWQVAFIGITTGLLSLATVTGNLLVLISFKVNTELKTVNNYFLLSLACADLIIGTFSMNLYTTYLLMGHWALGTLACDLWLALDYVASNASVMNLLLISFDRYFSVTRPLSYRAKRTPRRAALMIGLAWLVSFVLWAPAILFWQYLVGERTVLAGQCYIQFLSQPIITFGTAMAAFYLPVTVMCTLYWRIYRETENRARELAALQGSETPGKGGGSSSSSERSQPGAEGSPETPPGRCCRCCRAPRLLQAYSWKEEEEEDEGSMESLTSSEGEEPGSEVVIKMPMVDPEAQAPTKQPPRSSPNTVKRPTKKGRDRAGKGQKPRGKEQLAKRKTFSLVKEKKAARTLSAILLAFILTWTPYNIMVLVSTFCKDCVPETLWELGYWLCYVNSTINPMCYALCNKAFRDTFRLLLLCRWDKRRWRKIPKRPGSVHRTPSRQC

Row | Structure (SMILES) | Ratio [1] | Ratio [2] | Ki [3] [nM]
1 | CCOC(=O)N1CCC(N2CCC(C3(c4ccc(S(=O)(=O)c5ccc(OC)cc5)cc4)SCCCS3)CC2)CC1 | 2.9 | 4.4 | 14.3
2 | C=C(c1ccc(S(=O)(=O)c2ccc(OC)cc2)cc1)C1CCN(C2CCN(C(=O)OCC)CC2)CC1 | 21.9 | 68.3 | 0.07
3 | CCOC(=O)N1CCC(N2CCC(C3(c4ccc(S(=O)(=O)c5ccc6c(c5)OCO6)cc4)O[C@H](C)[C@@H](C)O3)CC2)CC1 | 46 | 21.7 | 0.03
4 | CCCS(=O)(=O)N1CCC(N2CCC(C3(c4ccc(S(=O)(=O)c5ccc6c(c5)OCO6)cc4)SCCS3)CC2)CC1 | 57.4 | 62.6 | 0.031
5 | CCCS(=O)(=O)N1CCC(N2CCC(C3(c4ccc(S(=O)(=O)c5ccc6c(c5)OCO6)cc4)O[C@H](C)[C@@H](C)O3)CC2)CC1 | 46.1 | 8.7 | 1.22
6 | CCCS(=O)(=O)N1CCC(N2CCC(C3(c4ccc([S+]([O-])c5ccc6c(c5)OCO6)cc4)OCCO3)CC2)CC1 (centres undefined) | 10 | 10.8 | 0.823
7 | CCOC(=O)N1CCC(N2CCC(C(=O)c3ccc(S(=O)(=O)c4ccc5c(c4)OCO5)cc3)CC2)CC1 | 7.5 | 47.6 | 0.13
8 | CCOC(=O)N1CCC(N2CCC(C3(c4ccc(S(=O)(=O)c5ccc(OC)cc5)cc4)SCCS3)CC2)CC1 | 3 | 22.5 | 0.11
9 | CCOC(=O)N1CCC(N2CCC(C3(c4ccc(S(=O)(=O)c5ccc6c(c5)OCO6)cc4)OCCO3)CC2)CC1 | 1.3 | 4.1 | 0.073
10 | CCCS(=O)(=O)N1CCC(N2CCC(C(=O)c3ccc(S(=O)(=O)c4ccc5c(c4)OCO5)cc3)CC2)CC1 | 93.4 | 42.6 | 1.02
11 | CCCS(=O)(=O)N1CCC(N2CCC(C3(c4ccc([S+]([O-])c5ccc6c(c5)OCO6)cc4)CCCO3)CC2)CC1 (centres undefined) | 0.5 | 0.49 | 12.1
12 | CCCS(=O)(=O)N1CCC(N2CCC(C3(c4ccc([S+]([O-])c5ccc6c(c5)OCO6)cc4)O[C@H](C)[C@@H](C)O3)CC2)CC1 (some centres undefined) | 12.9 | 7.5 | 9.09
13 | CCCS(=O)(=O)N1CCC(N2CCC(C3(c4ccc([S+]([O-])c5ccc6c(c5)OCO6)cc4)SCCS3)CC2)CC1 (centres undefined) | 12.8 | 10.7 | 0.82
14 | CCOC(=O)N1CCC(N2CCC(C3(c4ccc(S(=O)(=O)c5ccc(OC)cc5)cc4)OCCO3)CC2)CC1 | 7.1 | 28.3 | 0.16
15 | CCOC(=O)N1CCC(N2CCC(C3(c4ccc(S(=O)(=O)c5ccc6c(c5)OCO6)cc4)O[C@@H](C)[C@H](C)O3)CC2)CC1 | 6.1 | 10.2 | 1.82
16 | CCCS(=O)(=O)N1CCC(N2CCC(C3(c4ccc(S(=O)(=O)c5ccc6c(c5)OCO6)cc4)CCCO3)CC2)CC1 (centres undefined) | 0.24 | 0.22 | 5.07
17 | CCCS(=O)(=O)N1CCC(N2CCC(C(=O)c3ccc([S+]([O-])c4ccc5c(c4)OCO5)cc3)CC2)CC1 (centres undefined) | 11.8 | 4.6 | 34.8
18 | CCCS(=O)(=O)N1CCC(N2CCC(C3(c4ccc(S(=O)(=O)c5ccc6c(c5)OCO6)cc4)OCCO3)CC2)CC1 | 93 | 102 | 
19 | CCOC(=O)N1CCC(N2CCC(C(=O)c3ccc(S(=O)(=O)c4ccc(OC)cc4)cc3)CC2)CC1 | 10.2 | 26.8 | 2.91
20 | CCOC(=O)N1CCC(N2CCC(C3(c4ccc(S(=O)(=O)c5ccc(OC)cc5)cc4)OCCCO3)CC2)CC1 | 14.4 | 21 | 0.72
